In brackets after ≈: the same amount, converted by molar mass.
How the values were obtained:
OV = assay: XTT cytotoxicity assay (OV); type: cell-based; settings: abbreviation not defined
Procedure: The XTT assay is a non-radioactive alternative for the [^51Cr] release cytotoxicity assay. XTT is a tetrazolium salt that is reduced to a formazan dye only by metabolically active, viable cells. The reduction of XTT is measured spectrophotometrically as OD490-OD650. After 72 hours of incubation, cells are incubated for 4 hours with the XTT reagent as per manufacturer's instructions (Cell Proliferation Kit II (XTT) Roche). Plates are read at OD490 and OD650 on a Molecular Devices SpectraMax Plus Spectrophotometer. Three wells containing the XTT reagent without cells serve as the plate blank. XTT data are reported as OD490-OD650. Averages and standard error of the mean are computed using SOFTmax Pro software (Molecular Dynamics). The IC50 for the compounds is defined as the concentration of drug leading to a 50% reduction in OD490-OD650 compared to controls. The OD490-OD650 are computed by the SOFTmax PRO software (Molecular Devices) for each compound concentration. IC50 is calculated by linear regression, plotting the FAS activity as percent of control versus drug concentrations. Linear regression, best-fit line, r^2, and 95% confidence intervals are determined using Prism Version 3.0 (Graph Pad Software).

[1] = system: MCF-7 human breast cancer cells; assay: Crystal violet cell growth assay; type: cell-based; settings: MCF7, MCF-7, 72 hours, read-out: Cr. Violet (IC50)
Procedure: The crystal violet assay measures cell growth but not cytotoxicity. This assay employs crystal violet staining of fixed cells in 96-well plates with subsequent solubilization and measurement of OD490 on a spectrophotometer. The OD490 corresponds to cell growth per unit time measured. Cells are treated with the compounds of interest or vehicle controls and IC50 for each compound is computed.
To measure the cytotoxicity of specific compounds against cancer cells, 5×10^4 MCF-7 human breast cancer cells, obtained from the American Type Culture Collection are plated per well in 24 well plates in DMEM medium with 10% fetal bovine serum, penicillin, and streptomycin. Following overnight culture at 37° C. and 5% CO2, the compounds to be tested, dissolved in DMSO, are added to the wells in 1 μl volume at the following concentrations: 50, 40, 30, 20, and 10 μg/ml in triplicate. Additional concentrations are tested if required. 1 μl of DMSO is added to triplicate wells are the vehicle control. C75 is run at 10, and 5 μg/ml in triplicate as positive controls.
After 72 hours of incubation, cells are stained with 0.5 ml of Crystal Violet stain (0.5% in 25% methanol) in each well. After 10 minutes, wells are rinsed, air dried, and then solubilized with 0.5 ml 10% sodium dodecylsulfate with shaking for 2 hours. Following transfer of 100 μl from each well to a 96-well plate, plates are read at OD490 on a Molecular Devices SpectraMax Plus Spectrophotometer Average OD490 values are computed using SOFTmax Pro Software (Molecular Devices) and IC50 values are determined by linear regression analysis using Prism version 3.02 (Graph Pad Software, San Diego).

## CCCCCCCCC1OC(=O)C(OC)=C1C(=O)OCC (stereo not shown) [Compound 4]
OV
  IC50: 9.2 µg/mL (≈ 30.8 µM)
[1]
  IC50: 10.7 µg/mL (≈ 35.9 µM)

## CCCCCCCCC1OC(=O)C(OC(=O)OCC)=C1C(=O)OCC (stereo not shown) [Compound 7]
OV
  IC50: 13.8 µg/mL (≈ 38.7 µM)

## CCCCCCCCC1OC(=O)C(OCc2ccccc2)=C1C(=O)OCC (stereo not shown) [Compound 5]
OV
  IC50: 33.9 µg/mL (≈ 90.5 µM)
[1]
  IC50: 17.1 µg/mL (≈ 45.7 µM)

## CCCCCCCCC1OC(=O)C(=O)C1C(=O)OCC (stereo not shown) [Compound 1]
OV
  IC50: 18.4 ± 5.8 µg/mL (≈ 64.7 µM)
[1]
  IC50: 28 µg/mL (≈ 98.5 µM)

## CCCCCCCCC1OC(=O)C(OCC(=O)OCC)=C1C(=O)OCC (stereo not shown) [Compound 3]
OV
  IC50: 24.1 µg/mL (≈ 65.1 µM)
[1]
  IC50: 35.4 µg/mL (≈ 95.6 µM)

## CCCCC1OC(=O)C(O)=C1C(=O)OCC (stereo not shown) [Compound 2]
OV
  IC50: 66.1 µg/mL (≈ 290 µM)
[1]
  IC50: 41.9 µg/mL (≈ 184 µM)

## C=CCOC1=C(C(=O)OCC)C(CCCCCCCC)OC1=O (stereo not shown) [Compound 6]
OV
  IC50: > 80 µg/mL
[1]
  IC50: 22 µg/mL (≈ 67.8 µM)

Source: patent US20100029761A1, “NOVEL COMPOUNDS, PHARMACEUTICAL COMPOSITIONS CONTAINING SAME, AND METHODS OF USE FOR SAME” (priority 2005, published 2010)
